Data reported in publication PMC10148881, “Recognition of an Ala-rich C-degron by the E3 ligase Pirh2” (Nature Communications, 2023).
Where a chain is given by its changes, count along the chain named. Like-named read-outs stand apart in the source and are kept apart here. Ends that are not written are not given here. Peptide text beside a SMILES is read from it.

What was measured:
[1] = target: T1, Pirh2 (NTD + RING) (Homo sapiens, UniProt Q96PM5); assay: ITC of degron peptides with Pirh2 NTD + RING; assay type: binding
T1 construct: Pirh2 NTD + RING (residues 1–189); 8xHis-SUMO (N, cleaved yes); made in house; host or cells: E. coli BL21 (DE3)
T1 sequence (Q96PM5 1-189): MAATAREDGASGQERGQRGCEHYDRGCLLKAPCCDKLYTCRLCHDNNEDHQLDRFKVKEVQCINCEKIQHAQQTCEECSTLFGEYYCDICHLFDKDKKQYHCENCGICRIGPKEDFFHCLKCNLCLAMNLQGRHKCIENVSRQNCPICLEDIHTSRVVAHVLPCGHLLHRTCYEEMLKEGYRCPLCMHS
Source text: The DNA fragments corresponding to human full-length Pirh2 (residues 1–261), Pirh2 NTD + RING (residues 1–189), Pirh2 NTD (residues 1–137), Pirh2 RING + CTD (residues 138–261), Pirh2 RING (residues 138–189) and Pirh2 CTD (residues […]) were cloned by seamless cloning into the pET28-MKH8SUMO vector (Addgene Plasmid #79526), which contains an 8× His-SUMO tag followed by a Tobacco etch virus (TEV) cleavage site. The DNA fragment of Pirh2 (residues 15–191)-linker (GSGSG)-polyAla (AAAAAA) was cloned into the pGEX vector, which contains a GST tag followed by a TEV cleavage site. The recombinant plasmids were transformed into E. coli BL21 (DE3) and the expression of the target proteins was induced with 0.2 mM isopropyl β-D-1-thiogalactopyranoside (IPTG) supplemented with 100 μM ZnCl2 at 18 °C overnight. Cells were harvested by centrifugation and resuspended in lysis buffer (20 mM Tris-HCl pH 8.5, 400 mM NaCl, 5% v/v glycerol, 10 μM ZnCl2 and 2 mM β-mercaptoethanol). The cells were lysed by sonication on ice and the lysates were clarified by centrifugation at 14,000 rpm for 40 min at 4 °C. The lysate containing GST tagged Pirh2-linker-polyAla was collected to incubate with GST beads for 1 h, and nonspecifically bound proteins were washed out by lysis buffer. The GST tag was proteolytically cleaved by adding the TEV protease to the GST beads overnight at 4 °C and the TEV protease was removed by passing through the Ni‐NTA column. The other supernatants were collected to incubate with Ni-NTA beads for 1 h at 4 °C. Nonspecifically bound proteins were washed out of Ni-NTA beads by washing buffer (20 mM Tris-HCl pH 8.5, 400 mM NaCl and 25 mM imidazole pH 8.5) and the fusion proteins were eluted by elution buffer (20 mM Tris-HCl pH 8.5, 400 mM NaCl and 300 mM imidazole pH 8.5). The SUMO tag was cleaved by TEV protease with a molar ration of 1: 20 in dialysis buffer (20 mM Tris-HCl pH 8.5 and 300 mM NaCl) at 4 °C overnight. The samples were reloaded onto the Ni-NTA column to remove the cleaved SUMO tag and TEV protease. Finally, all of the acquired proteins were further purified by size exclusion chromatography (Superdex 200 Increase 10/300 GL, GE healthcare), which was pre-equilibrated with gel-filtration buffer (20 mM Tris-HCl pH 7.5, 150 mM NaCl, 10 μM ZnCl2 and 1 mM DTT). Purified proteins were concentrated and stored at −80 °C for later use. Expression and purification of the mutants were performed in the same way as wild-type proteins.
Isothermal titration calorimetry (ITC) measurements were performed at 16 °C using a MicroCal PEAQ-ITC instrument (Malvern Panalytical). Proteins and peptides were prepared in an ITC buffer (20 mM Tris-HCl pH 7.5, 150 mM NaCl and 10 μM Zn^2+). ITC experiments were performed by titrating 1.5 μL (with the exception of the first injection of 0.5 μL) of peptides (0.6–1.0 mM) into cell containing 180–220 μM proteins, with a spacing time of 90 s and a reference power of 10 μcal s^−1. The titration data were analyzed using the one-site binding model from MicroCal PEAQ-ITC Analysis Software version 1.30. All ITC assays were repeated at least three times independently with similar results.

[2] = target: T2, Pirh2 I107D (Homo sapiens, UniProt Q96PM5, I107D); assay: ITC of Ala6/C-degron peptide with mutant Pirh2 I107D; assay type: binding; conditions: Fig. 4a
T2 construct: Pirh2 NTD + RING (residues 1–189); 8xHis-SUMO (N, cleaved yes); made in house; host or cells: E. coli BL21 (DE3)
T2 sequence (Q96PM5 1-189 I107D): T1 sequence (Q96PM5 1-189) with I107D
Source text: (§1) The DNA fragments corresponding to human full-length Pirh2 (residues 1–261), Pirh2 NTD + RING (residues 1–189), Pirh2 NTD (residues 1–137), Pirh2 RING + CTD (residues 138–261), Pirh2 RING (residues 138–189) and Pirh2 CTD (residues 187–261) were cloned by seamless cloning into the pET28-MKH8SUMO vector (Addgene Plasmid #79526), which contains an 8× His-SUMO tag followed by a Tobacco etch virus (TEV) cleavage site. The DNA fragment of Pirh2 (residues 15–191)-linker (GSGSG)-polyAla (AAAAAA) was cloned into the pGEX vector, which contains a GST tag followed by a TEV cleavage site. The recombinant plasmids were transformed into E. coli BL21 (DE3) and the expression of the target proteins was induced with 0.2 mM isopropyl β-D-1-thiogalactopyranoside (IPTG) supplemented with 100 μM ZnCl2 at 18 °C overnight. Cells were harvested by centrifugation and resuspended in lysis buffer (20 mM Tris-HCl pH 8.5, 400 mM NaCl, 5% v/v glycerol, 10 μM ZnCl2 and 2 mM β-mercaptoethanol). The cells were lysed by sonication on ice and the lysates were clarified by centrifugation at 14,000 rpm for 40 min at 4 °C. […]
(§2) Isothermal titration calorimetry (ITC) measurements were performed at 16 °C using a MicroCal PEAQ-ITC instrument (Malvern Panalytical). […] The titration data were analyzed using the one-site binding model from MicroCal PEAQ-ITC Analysis Software version 1.30. […]

[3] = target: T3, Pirh2 S155D (Homo sapiens, UniProt Q96PM5, S155D); assay: ITC of Ala6/C-degron peptide with mutant Pirh2 S155D; assay type: binding; conditions: Fig. 4a
T3 construct: Pirh2 NTD + RING (residues 1–189); 8xHis-SUMO (N, cleaved yes); made in house; host or cells: E. coli BL21 (DE3)
T3 sequence (Q96PM5 1-189 S155D): T1 sequence (Q96PM5 1-189) with S155D
Source text: as §1, §2

[4] = target: T4, Pirh2 NTD (Homo sapiens, UniProt Q96PM5); assay: ITC of degron peptide with Pirh2 NTD; conditions: 16 °C, 20 mM Tris-HCl pH 7.5, 150 mM NaCl, 10 μM Zn2+, one-site binding model, repeated at least three times
T4 construct: Pirh2 NTD (residues 1–137); 8xHis-SUMO (N, cleaved yes); made in house; host or cells: E. coli BL21 (DE3)
T4 sequence (Q96PM5 1-137): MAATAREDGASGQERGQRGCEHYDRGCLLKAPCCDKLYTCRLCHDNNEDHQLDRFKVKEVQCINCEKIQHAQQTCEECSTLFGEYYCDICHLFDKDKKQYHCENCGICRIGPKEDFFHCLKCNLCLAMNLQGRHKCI
Source text: as §1, §2

[5] = target: T5, Pirh2 R54A (Homo sapiens, UniProt Q96PM5, R54A); assay: ITC of Ala6/C-degron peptide with mutant Pirh2 R54A; assay type: binding; conditions: Fig. 4a
T5 construct: Pirh2 NTD + RING (residues 1–189); 8xHis-SUMO (N, cleaved yes); made in house; host or cells: E. coli BL21 (DE3)
T5 sequence (Q96PM5 1-189 R54A): T1 sequence (Q96PM5 1-189) with R54A
Source text: as §1, §2

[6] = target: T6, full-length Pirh2 (Homo sapiens, UniProt Q96PM5); assay: ITC of degron peptide with full-length Pirh2; conditions: 16 °C, 20 mM Tris-HCl pH 7.5, 150 mM NaCl, 10 μM Zn2+, one-site binding model, repeated at least three times
T6 construct: human full-length Pirh2 (residues 1–261); 8xHis-SUMO (N, cleaved yes); made in house; host or cells: E. coli BL21 (DE3)
T6 sequence (Q96PM5 1-261): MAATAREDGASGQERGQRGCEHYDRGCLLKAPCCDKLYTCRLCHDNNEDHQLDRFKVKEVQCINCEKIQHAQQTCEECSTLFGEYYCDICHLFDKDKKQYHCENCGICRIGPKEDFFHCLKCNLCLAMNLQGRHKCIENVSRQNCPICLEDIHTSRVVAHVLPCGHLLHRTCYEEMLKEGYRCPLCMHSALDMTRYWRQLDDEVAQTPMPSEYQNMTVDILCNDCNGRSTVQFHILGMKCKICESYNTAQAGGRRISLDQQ
Source text: as §1, §2

[7] = target: T7, Pirh2 D94A (Homo sapiens, UniProt Q96PM5, D94A); assay: ITC of Ala6/C-degron peptide with mutant Pirh2 D94A; assay type: binding; conditions: Fig. 4a
T7 construct: Pirh2 NTD + RING (residues 1–189); 8xHis-SUMO (N, cleaved yes); made in house; host or cells: E. coli BL21 (DE3)
T7 sequence (Q96PM5 1-189 D94A): T1 sequence (Q96PM5 1-189) with D94A
Source text: as §1, §2

[8] = ITC, 16 °C, 20 mM Tris-HCl pH 7.5, 150 mM NaCl, 10 μM Zn2+, one-site binding model, repeated at least three times, NB = no detectable binding under our experimental conditions, read-out: KD

| Compound | Kd [1, 8] [µM] | other results |
| --- | --- | --- |
| YKTSAPAA | 0.9 | – |
| C[C@H](N)C(=O)N[C@@H](C)C(=O)N[C@@H](C)C(=O)O [AAA] | > 100 | – |
| C[C@H](N)C(=O)N[C@@H](C)C(=O)N[C@@H](C)C(=O)N[C@@H](C)C(=O)N[C@@H](C)C(=O)N[C@@H](C)C(=O)O [AAAAAA] | 0.9 | – |
| C[C@H](N)C(=O)N[C@@H](C)C(=O)N[C@@H](C)C(=O)N[C@@H](C)C(=O)N[C@@H](C)C(=O)O [AAAAA] | 2.5 | – |
| YKTSALAA | 2.8 | – |
| YKTSSAAA | 4.5 | – |
| YKTSAAAAAA [Ala6/C-degron] | 0.5 | Kd [2]: 9.1 µM; Kd [3]: 4.5 µM; Kd [4]: 5.5 µM; Kd [5]: > 100 µM; Kd [6]: 0.9 µM; Kd [7]: 3 µM |
| YKTSAAIA | 13 | – |
| YKTSTAAAAA | – | Kd [1]: 0.5 µM |
| YKTSATAAAA | 0.5 | – |
| C[C@H](N)C(=O)N[C@@H](C)C(=O)N[C@@H](C)C(=O)N[C@@H](C)C(=O)O [AAAA] (H-AAAA-OH) | 7.4 | – |
| YKTSAAVA | 13 | – |
| YKTSAKAA | 5.5 | – |
| YKTSASAA | 3 | – |
